Assay results from article PMC9166630, “SAR Probing of KX2-391 Provided Analogues With Juxtaposed Activity Profile Against Major Oncogenic Kinases” (Frontiers in Oncology, 2022).

Legend:
Hck = experiment: PamChip tyrosine kinase microarray, Hck; type: biochemical, human; details: 4e 0.1 µM, HL60 lysate
Method: (§1) The changes in kinase activities induced by treatment with 4e were monitored within the HL60 cell lines using PamGene’s (Hertogenbosch, Netherlands) PamChip® peptide microarray profiler, which quantifies the activities of 144 tyrosine kinases (YK) ([29], [30]) (Figure 7). Results are provided as a log fold change (LFC) heatmap and Mean Kinase Statistic. From the LFC it is apparent that compound 4e, at a concentration of 0.1 µM, induced sizable changes to the activity of several kinases within the cell signaling YK profile (Figure 7A).
(§2) An Upstream Kinase tool was used to generate a putative list of kinases responsible for phosphorylating the phospho-sites on the PamChip (Figure 7B) ([31]). It is an interpretation and is highly dependent on the contents of the underlying phosphorylation databases. A Kinase Score was used for ranking kinases based on their significance and specificity in terms of the set of peptides used for the corresponding kinase. Kinase Statistics indicates the overall change of the peptide set that represents the kinase. Kinase statistics value <0 indicates lower kinase activity in the compound spiked lysate and vice versa ([32], [33]). Table 5 lists the 20 most changed kinases within treated HL60 cell lysates by 0.1 μM 4e, ranked according to their Kinase Score.
(§3) The two multiple-kinase tests (PamChip and Phosphokinase Profiler) provided strong evidence of very minor involvement of Src in the cellular activities of 4e. However, the question must be raised about the effect of the 4e on other SRC family kinase (SFK). To address this point, we must highlight that both R&D phosphokinase profiler and PamChip feature Yes, Fgr, Lyn, Lck and Src while Fyn, Hck, Blk and Frk activities are tested in the PamChip only. The signals of SFKs in the R&D Phosphokinase Profiler were too weak to detect in both untreated (control) and 4e-treated HL60 cells. In PamChip assay, most of SFK’s were not ranked in the top 20 affected kinases (Table 5). In addition, their Specificity Score were very low (Table 6) indicating their marginal importance to the cell killing activities of 4e. Fgr kinase which ranked 7th in the list (Table 5) was the only SFK member that seems to be affected by the compound, albeit with low Specificity Score (1.03).
(§4) The compound 4e was spiked into HL60 cell lysate at different concentrations (0.001, 0.01, 0.1, 1, 10 and 50 μM). In addition, DMSO was also spiked in HL60 lysate at low concentration (2% v/v) as control. Samples were profiled on PamGene’s Tyrosine Kinase (PTK) arrays in technical replicates, covering a total of 196 phosphorylation sites. Frozen HL60 cultured cell pellet was sent to PamGene. […] Protein concentration was measured using standard Bradford assay as per PamGene SOPs. […]

Etk/BMX = experiment: PamChip tyrosine kinase microarray, Etk/BMX; type: biochemical, human; details: 4e 0.1 µM, HL60 lysate
Method: as §1, §2
(§5) The compound 4e was spiked into HL60 cell lysate at different concentrations (0.001, 0.01, 0.1, 1, 10 and 50 μM). In addition, DMSO was also spiked in HL60 lysate at low concentration (2% v/v) as control. Samples were profiled on PamGene’s Tyrosine Kinase (PTK) arrays in technical replicates, covering a total of 196 phosphorylation sites. Frozen HL60 cultured cell pellet was sent to PamGene. At PamGene, cells were lysed using a lysis buffer and proteases inhibitors cocktail. Protein concentration was measured using standard Bradford assay as per PamGene SOPs. These lysates were further used for generating the PTK activity profiles. For spiking, 4e was received as powder form and dissolved in DMSO at PamGene facility followed by storing at -20°C in small aliquots. PamGene used its in-house bioinformatics toolbox in combination with other methods to generate hypotheses of signaling pathways.

HSP27 = experiment: Human phosphokinase array, HSP27; type: cell-based
Text: (§6) The kinome tree representation (Figure 7C), which was generated by raising the Kinase Score cut-off to >1.2, confirmed that, unlike tirbanibulin and our prototype molecule KX1-136, 4e’s effects were more observable on kinases other than the Src family such as the Eph and TEC families. […] Therefore, we screened compound 4e using the Human Phospho-Kinase Array® kit from R&D systems (Minneapolis, MN, USA). In this system, 35 phosphorylated YK and serine-threonine kinase (STK) enzymes in the untreated (control) and treated (test) HL60 cell lysates were captured on nitrocellulose membrane, pre-spotted with phosphokinase-specific capture antibodies, and then visualized by detection antibody cocktails (Figure 8). The difference in the spot intensity between untreated (control) and treated cells is proportional to change in the amount of the phosphorylated protein induced by 4e.
(§7) The phosphorylation profile of 48 kinases was performed using the Proteome Profiler Human Phospho-Kinase Antibody Array Kit by R&D Systems (Minneapolis, MN, USA) according to the protocol. Briefly, the total cellular protein was extracted using the Lysis buffer and was quantified using Bio-Rad DC Protein Assay kit (Hercules, CA, USA). Nitrocellulose membrane set (A&B), pre-spotted with kinase-specific capture antibodies, were first blocked with Array Buffer-1 at RT for 30 min on a rocking platform shaker. Approximately 600 µg of protein concentrate was diluted in the buffer provided and was added onto the membrane set, and the membranes were incubated overnight at 4°C in an 8-well plate. Subsequently, membranes were washed with Wash Buffer and incubated with appropriate Detection Antibody cocktails for 2 h at RT. Streptavadin-HRP (1:2000) was added onto membranes and incubated for 30 min at RT. Membranes were washed, and Chemiluminescent Detection Reagents 1&2 were applied in equal volumes for detection. The signals were detected on C-DiGit®Blot Scanner (LI-COR, Odyssey Imaging Systems, Lincoln, Nebraska, USA) using Image Studio 5.0 software.

HL60 cells = experiment: Apoptosis detection (Annexin V-FITC/PI); type: cell-based, human; details: HL60, 7 µM, 48 h
Method: Integral to the cell cycle analysis of 4e, we determined the population of cells undergoing apoptosis, or programmed cell death, by Annexin V-FITC/PI double staining in HL60 cells. Two different concentrations of 4e (3.5 µM and 7 µM) were selected for treatment.
Total apoptosis was detected using Annexin V-FITC Apoptosis Detection kit (Cell Signaling Technology, Danvers, MA, USA) as per the protocol. Briefly, 1.5 x 10^5 of HL60 cells were plated in a 6-well plate with appropriate compound concentrations at 37°C for 48 h. After the incubation completed, cells were washed twice with ice-cold PBS (1X). Subsequently cells were stained with Annexin V-FITC/PI and incubated in the dark on ice for 20 min. After washing with PBS wash, the cells were analyzed by acquiring a minimum total of 5000 events using BD FACSAria III flow cytometer (BD Biosciences, USA).

EphA2 = molecular target: T1, EphA2 (Homo sapiens, UniProt P29317); experiment: PamChip tyrosine kinase microarray, EphA2; type: biochemical; details: 4e 0.1 µM, HL60 lysate
T1 construct: endogenous in cells; host or cells: HL60 lysate
Method: as §1, §2, §5

JNK1/2/3 = experiment: Human phosphokinase array, JNK1/2/3; type: cell-based
Text: as §6, §7

Frk = experiment: PamChip tyrosine kinase microarray, Frk; type: biochemical, human; details: 4e 0.1 µM, HL60 lysate
Method: as §1, §2, §3, §4

T1 sequence (P29317 24-976): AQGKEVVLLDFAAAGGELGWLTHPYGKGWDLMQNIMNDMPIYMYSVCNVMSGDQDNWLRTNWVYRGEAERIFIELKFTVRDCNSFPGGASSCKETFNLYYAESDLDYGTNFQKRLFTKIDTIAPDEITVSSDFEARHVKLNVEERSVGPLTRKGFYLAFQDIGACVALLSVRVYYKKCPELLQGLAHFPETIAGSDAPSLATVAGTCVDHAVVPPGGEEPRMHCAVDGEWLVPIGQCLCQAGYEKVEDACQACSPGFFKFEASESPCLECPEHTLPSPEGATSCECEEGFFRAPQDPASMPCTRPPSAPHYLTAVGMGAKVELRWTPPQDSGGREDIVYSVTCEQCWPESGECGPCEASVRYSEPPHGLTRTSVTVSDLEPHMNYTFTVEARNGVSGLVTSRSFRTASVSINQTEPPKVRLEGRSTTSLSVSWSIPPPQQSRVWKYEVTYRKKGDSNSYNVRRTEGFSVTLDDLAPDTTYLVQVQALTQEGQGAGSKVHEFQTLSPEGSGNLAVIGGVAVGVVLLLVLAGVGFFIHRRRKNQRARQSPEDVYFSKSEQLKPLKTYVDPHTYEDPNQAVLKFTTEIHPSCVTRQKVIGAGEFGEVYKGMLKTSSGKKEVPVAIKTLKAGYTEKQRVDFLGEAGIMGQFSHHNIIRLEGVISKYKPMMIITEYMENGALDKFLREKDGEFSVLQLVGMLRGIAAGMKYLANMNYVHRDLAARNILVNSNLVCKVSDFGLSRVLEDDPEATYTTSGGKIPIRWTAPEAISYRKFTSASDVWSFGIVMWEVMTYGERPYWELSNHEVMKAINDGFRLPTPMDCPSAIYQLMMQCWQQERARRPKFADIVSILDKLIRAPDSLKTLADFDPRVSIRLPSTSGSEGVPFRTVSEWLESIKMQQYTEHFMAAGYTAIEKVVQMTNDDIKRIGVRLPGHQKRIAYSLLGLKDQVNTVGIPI

O=C(Cc1ccc(NC(=O)c2cccc(Cl)c2)cc1)NCc1ccccc1 [Compound 4e, N-(4-(2-(benzylamino)-2-oxoethyl)phenyl)-3-chlorobenzamide]
Mean Final Score (Hck): 1.0872 | Mean Kinase Statistic (Hck): -0.4497 | Mean Significance Score (Hck): 0.8248 | Mean Specificity Score (Hck): 0.2624 | Mean Final Score (Etk/BMX): 1.7640 | Mean Kinase Statistic (Etk/BMX): -0.5143 | Mean Significance Score (Etk/BMX): 1.3079 | Mean Specificity Score (Etk/BMX): 0.4561 | decrease of Hsp27 Ser78 and Ser82 phosphorylation (HSP27; HL60, versus control): 92.3% | phosphokinase signal after 4e exposure, HSP27 (HSP27; HL60 cell lysate, treated): 3.71 | % Change, HSP27 (HSP27; treated vs untreated HL60): -92.31% | Change in Signal, HSP27 (HSP27; treated vs untreated HL60): -44.51 | percentage of apoptotic cells (HL60 cells): increased significantly | Mean Final Score (EphA2): 2.4004 | Mean Kinase Statistic (EphA2): -0.7066 | Mean Significance Score (EphA2): 1.5807 | Mean Specificity Score (EphA2): 0.8197 | phosphokinase signal after 4e exposure, JNK1/2/3 (JNK1/2/3; HL60 cell lysate, treated): 20.91 | % Change, JNK1/2/3 (JNK1/2/3; treated vs untreated HL60): -50.61% | Change in Signal, JNK1/2/3 (JNK1/2/3; treated vs untreated HL60): -21.43 | Mean Final Score (Frk): 1.6587 | Mean Kinase Statistic (Frk): -0.5116 | Mean Significance Score (Frk): 1.1484 | Mean Specificity Score (Frk): 0.5102
